Assay results taken from ChEMBL document CHEMBL4190392, “Enhancing Action of Positive Allosteric Modulators through the Design of Dimeric Compounds” (J Med Chem, 2018).

Target: Glutamate receptor 2 (Homo sapiens, UniProt P42262)
Experiment: Positive allosteric modulation of GluA2Q flop isoform (unknown origin) expressed in HEK293 cells assessed as increase in L-glutamate induced calcium flux after 1 hr by fluo-4AM dye-based fluorescence assay
Format: cell-based

Glutamate receptor 2, sequence (P42262 whole entry, canonical isoform): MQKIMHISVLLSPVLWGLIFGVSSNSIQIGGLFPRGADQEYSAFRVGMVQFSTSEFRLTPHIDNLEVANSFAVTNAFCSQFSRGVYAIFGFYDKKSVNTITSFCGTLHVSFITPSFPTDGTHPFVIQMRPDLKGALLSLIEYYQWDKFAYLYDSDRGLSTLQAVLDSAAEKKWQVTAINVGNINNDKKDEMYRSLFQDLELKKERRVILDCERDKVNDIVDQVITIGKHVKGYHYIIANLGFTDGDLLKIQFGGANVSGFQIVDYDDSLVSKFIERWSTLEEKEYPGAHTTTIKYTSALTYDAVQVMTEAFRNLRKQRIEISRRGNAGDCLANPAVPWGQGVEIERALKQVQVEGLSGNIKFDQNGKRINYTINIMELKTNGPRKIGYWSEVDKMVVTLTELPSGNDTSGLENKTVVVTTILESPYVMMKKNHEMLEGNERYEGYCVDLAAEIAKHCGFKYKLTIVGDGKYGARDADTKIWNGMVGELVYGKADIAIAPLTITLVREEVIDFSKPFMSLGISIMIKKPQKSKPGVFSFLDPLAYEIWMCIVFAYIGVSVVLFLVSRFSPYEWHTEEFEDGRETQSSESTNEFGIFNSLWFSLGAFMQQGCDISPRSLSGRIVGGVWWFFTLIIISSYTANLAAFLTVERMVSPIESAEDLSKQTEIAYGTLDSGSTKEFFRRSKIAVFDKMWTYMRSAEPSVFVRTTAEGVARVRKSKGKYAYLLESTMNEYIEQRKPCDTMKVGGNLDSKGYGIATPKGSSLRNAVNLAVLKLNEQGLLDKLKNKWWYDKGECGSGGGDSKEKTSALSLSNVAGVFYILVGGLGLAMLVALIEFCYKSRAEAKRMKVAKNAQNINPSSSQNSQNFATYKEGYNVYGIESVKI

EC50 (read-out: EC50)	EC50 (read-out: pEC50 (converted))	Compound
0.0014 µM		O=S1(=O)NCN(C2CC2)c2cc(CCc3ccc4c(c3)N(C3CC3)CNS4(=O)=O)ccc21
9.06 µM		O=S1(=O)NCN(C2CC2)c2ccccc21
48.2 µM	49 µM	Cc1ccc2c(c1)N(C1CC1)CNS2(=O)=O
176 µM		CN1CNS(=O)(=O)c2ccccc21
403 µM		Cc1ccc2c(c1)N(C)CNS2(=O)=O
0.0134 µM	0.0145 µM	CN1CNS(=O)(=O)c2ccc(CCc3ccc4c(c3)N(C)CNS4(=O)=O)cc21
